Patent US11180474B2 (BRISTOL-MYERS SQUIBB COMPANY, priority 2016, dated 2021)
Structures can show the parent of a compound that is named as a salt.

Legend:
human TLR8 = target: T1, human TLR8 (Homo sapiens, UniProt Q9NR97); experiment: TLR8 inhibition reporter assay (HEK-Blue cells, SEAP reporter, R848 stimulation); assay type: cell-based; conditions: HEK-Blue cells overexpressing human TLR8, R848 15.9 μM
T1 construct: host or cells: HEK-Blue cells
T1 sequence (Q9NR97 27-1041): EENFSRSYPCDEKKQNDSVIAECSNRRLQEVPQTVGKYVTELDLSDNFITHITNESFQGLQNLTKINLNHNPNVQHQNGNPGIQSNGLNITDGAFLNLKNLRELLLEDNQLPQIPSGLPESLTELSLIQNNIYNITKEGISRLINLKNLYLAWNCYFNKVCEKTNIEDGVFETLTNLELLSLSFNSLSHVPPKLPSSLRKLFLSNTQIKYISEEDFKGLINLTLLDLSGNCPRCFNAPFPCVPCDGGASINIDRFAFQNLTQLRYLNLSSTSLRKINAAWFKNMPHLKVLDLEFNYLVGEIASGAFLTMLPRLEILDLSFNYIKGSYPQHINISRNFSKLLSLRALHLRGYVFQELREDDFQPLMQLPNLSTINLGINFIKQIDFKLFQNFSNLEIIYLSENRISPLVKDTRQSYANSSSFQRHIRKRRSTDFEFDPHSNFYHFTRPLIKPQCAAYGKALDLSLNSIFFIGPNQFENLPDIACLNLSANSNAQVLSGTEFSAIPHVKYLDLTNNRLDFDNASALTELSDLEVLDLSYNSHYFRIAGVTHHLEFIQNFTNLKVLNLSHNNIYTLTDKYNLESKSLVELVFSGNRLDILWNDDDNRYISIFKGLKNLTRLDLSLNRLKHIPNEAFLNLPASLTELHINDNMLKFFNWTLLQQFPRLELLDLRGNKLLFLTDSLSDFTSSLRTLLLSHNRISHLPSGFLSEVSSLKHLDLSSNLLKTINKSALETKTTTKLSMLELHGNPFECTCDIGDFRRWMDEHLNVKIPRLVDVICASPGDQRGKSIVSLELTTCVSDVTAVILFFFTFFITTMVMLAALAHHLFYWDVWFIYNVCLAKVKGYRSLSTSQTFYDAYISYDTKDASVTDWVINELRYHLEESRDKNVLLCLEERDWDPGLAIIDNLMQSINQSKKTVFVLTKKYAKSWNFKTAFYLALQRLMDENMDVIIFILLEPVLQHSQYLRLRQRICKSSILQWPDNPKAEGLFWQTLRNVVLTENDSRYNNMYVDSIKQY
Experimental: TLR7/8/9 Inhibition Reporter Assays
Briefly, cells are seeded into Greiner 384 well plates (15000 cells per well for TLR7, 20,000 for TLR8 and 25,000 for TLR9) and then treated with test compounds in DMSO to yield a final dose response concentration range of 0.05 nM-50 μM. […] After a 22 hour incubation at 37° C., 5% CO2, SEAP levels are determined with the addition of HEK-Blue™ Detection reagent (Invivogen), a cell culture medium that allows for detection of SEAP, according to manufacturer's specifications. The percent inhibition is determined as the % reduction in the HEK-Blue signal present in wells treated with agonist plus DMSO alone compared to wells treated with a known inhibitor.

human TLR7 = target: T2, human TLR7 (Homo sapiens, UniProt Q9NYK1); experiment: TLR7 inhibition reporter assay (HEK-Blue cells, SEAP reporter, gardiquimod stimulation); assay type: cell-based; conditions: HEK-Blue cells overexpressing human TLR7, gardiquimod 7.5 μM
T2 construct: host or cells: HEK-Blue cells
T2 sequence (Q9NYK1 27-1049): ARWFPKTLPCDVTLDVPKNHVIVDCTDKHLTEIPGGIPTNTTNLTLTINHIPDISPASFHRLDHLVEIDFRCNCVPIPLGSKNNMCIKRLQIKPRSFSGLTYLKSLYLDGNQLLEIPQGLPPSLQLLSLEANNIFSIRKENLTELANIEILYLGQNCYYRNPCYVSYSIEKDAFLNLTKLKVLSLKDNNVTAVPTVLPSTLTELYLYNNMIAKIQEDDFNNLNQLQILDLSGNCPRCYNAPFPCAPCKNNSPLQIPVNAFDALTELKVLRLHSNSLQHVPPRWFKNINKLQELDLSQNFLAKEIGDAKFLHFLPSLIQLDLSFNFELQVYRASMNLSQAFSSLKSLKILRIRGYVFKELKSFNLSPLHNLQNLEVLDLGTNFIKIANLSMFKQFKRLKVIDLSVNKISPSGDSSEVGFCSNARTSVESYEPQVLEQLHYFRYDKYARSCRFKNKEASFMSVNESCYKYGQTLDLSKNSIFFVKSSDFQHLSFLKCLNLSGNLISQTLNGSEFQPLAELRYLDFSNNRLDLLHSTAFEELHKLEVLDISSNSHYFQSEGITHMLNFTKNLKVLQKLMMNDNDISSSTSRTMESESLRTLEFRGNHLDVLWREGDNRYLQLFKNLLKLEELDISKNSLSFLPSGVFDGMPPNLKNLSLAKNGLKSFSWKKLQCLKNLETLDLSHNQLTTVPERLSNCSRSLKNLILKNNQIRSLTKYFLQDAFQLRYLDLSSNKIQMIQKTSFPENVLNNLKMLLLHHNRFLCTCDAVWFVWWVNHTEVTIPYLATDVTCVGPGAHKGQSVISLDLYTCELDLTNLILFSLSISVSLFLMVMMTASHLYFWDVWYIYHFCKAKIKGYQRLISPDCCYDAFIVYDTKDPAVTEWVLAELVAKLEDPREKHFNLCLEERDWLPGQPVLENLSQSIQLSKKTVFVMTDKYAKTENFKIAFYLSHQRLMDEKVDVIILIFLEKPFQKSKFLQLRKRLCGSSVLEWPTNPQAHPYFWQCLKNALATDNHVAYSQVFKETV
Method in brief: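 HEK-Blue reporter cells (15,000/well TLR7, 20,000 TLR8) exposed to compound over 0.05 nM–50 μM, agonist-stimulated (R848 for TLR8, gardiquimod for TLR7), 22 h at 37 °C, 5% CO2. SEAP read with HEK-Blue Detection; % inhibition relative to agonist-plus-DMSO and known-inhibitor controls.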

SMILES	IC50 (human TLR8)	IC50 (human TLR7)
COc1ccc(-c2[nH]c3ccc(C4CCN(C(=O)CNCC(C)O)CC4)cc3c2C(C)C)cc1OC (centres unmarked) [Example 210, 1-(4-(2-(3,4-dimethoxyphenyl)-3-isopropyl-1H-indol-5-yl)piperidin-1-yl)-2-((2-hydroxypropyl)amino)ethan-1-one]	25 nM	13 nM
CCN(CC)C(=O)CCN(C)CC(=O)N1CCC(c2ccc3[nH]c(-c4ccc(OC)c(OC)c4)c(C(C)C)c3c2)CC1 [Example 204, 3-((2-(4-(2-(3,4-dimethoxyphenyl)-3-isopropyl-1H-indol-5-yl)piperidin-1-yl)-2-oxoethyl)(methyl)amino)-N,N-diethylpropanamide]	112 nM	160 nM
CCc1c(-c2ccc(OC)c(OC)c2)[nH]c2ccc(C3CCN(C4CCN(Cc5ccc(C)s5)CC4)CC3)cc12 [Example 140, 2-(3,4-dimethoxyphenyl)-3-ethyl-5-(1′-((5-methylthiophen-2-yl)methyl)-[1,4′-bipiperidin]-4-yl)-1H-indole]	240 nM	1020 nM
CCc1c(-c2ccc(OC)c(OC)c2)[nH]c2ccc(C3CCN(C4CCN(Cc5cc(C)n(C)n5)CC4)CC3)cc12 [Example 144, 2-(3,4-dimethoxyphenyl)-5-(1′-((1,5-dimethyl-1H-pyrazol-3-yl)methyl)-[1,4′-bipiperidin]-4-yl)-3-ethyl-1H-indole]	73 nM	473 nM
COc1ccc(-c2[nH]c3ccc(C4CCN(C(=O)CNC5(CO)CCCC5)CC4)cc3c2C(C)C)cc1OC [Example 213, 1-(4-(2-(3,4-dimethoxyphenyl)-3-isopropyl-1H-indol-5-yl)piperidin-1-yl)-2-((1-(hydroxymethyl)cyclopentyl)amino)ethan-1-one]	18 nM	31 nM
COc1ccc(-c2[nH]c3ccc(C4CCN(C5CCN(C)CC5)CC4)cc3c2C(C)C)cc1OC [Example 200, 2-(3,4-dimethoxyphenyl)-3-isopropyl-5-(1′-methyl-[1,4′-bipiperidin]-4-yl)-1H-indole]	27 nM	101 nM
COc1ccc(-c2[nH]c3ccc(C4CCN(C(=O)CNC5CCC(N(C)C)CC5)CC4)cc3c2C(C)C)cc1OC (centres unmarked) [Example 215, 1-(4-(2-(3,4-dimethoxyphenyl)-3-isopropyl-1H-indol-5-yl)piperidin-1-yl)-2-((4-(dimethylamino)cyclohexyl)amino)ethan-1-one]	163 nM	36 nM
CCc1c(-c2ccc(OC)c(OC)c2)[nH]c2ccc(C3CCN(C4CCN(Cc5cc6ccccc6[nH]5)CC4)CC3)cc12 [Example 128, 5-(1′-((1H-indol-2-yl)methyl)-[1,4′-bipiperidin]-4-yl)-2-(3,4-dimethoxyphenyl)-3-ethyl-1H-indole]	629 nM	3280 nM
CCc1c(-c2ccc(OC)c(OC)c2)[nH]c2ccc(C3CCN(C(=O)c4ccncc4)CC3)cc12 [Example 183, (4-(2-(3,4-dimethoxyphenyl)-3-ethyl-1H-indol-5-yl)piperidin-1-yl)(pyridin-4-yl) methanone]	838 nM	533 nM
CCc1c(-c2ccc(OC)c(OC)c2)[nH]c2cc(OC)c(C3CCN(C4CCN(C(C)C)CC4)CC3)cc12 [Example 192, 2-(3,4-dimethoxyphenyl)-3-ethyl-5-(1′-isopropyl-[1,4′-bipiperidin]-4-yl)-6-methoxy-1H-indole]	194 nM	171 nM
CCc1c(-c2ccc(OC)c(OC)c2)[nH]c2ccc(C3CCN(C(=O)CNC4CCC(N(C)C)CC4)CC3)cc12 (centres unmarked) [Example 162, 1-(4-(2-(3,4-dimethoxyphenyl)-3-ethyl-1H-indol-5-yl)piperidin-1-yl)-2-((4-(dimethylamino)cyclohexyl)amino)ethan-1-one]	23 nM	88 nM
CCc1c(-c2ccc(OC)c(OC)c2)[nH]c2ccc(C3CCN(C4CCN(C(C)C)CC4)CC3)cc12 [Example 151, 2-(3,4-dimethoxyphenyl)-3-ethyl-5-(1′-isopropyl-[1,4′-bipiperidin]-4-yl)-1H-indole]	403 nM	507 nM
COc1ccc(-c2[nH]c3ccc(C4CCN(C(=O)CNC56CC7CC(CC(C7)C5)C6)CC4)cc3c2C(C)C)cc1OC [Example 217, 2-(((3s,5s,7s)-adamantan-1-yl)amino)-1-(4-(2-(3,4-dimethoxyphenyl)-3-isopropyl-1H-indol-5-yl)piperidin-1-yl)ethan-1-one]	379 nM	409 nM
COc1ccc(-c2[nH]c3ccc(C4CCN(C5CCNCC5)CC4)cc3c2C(C)C)cc1OC [Example 197, 5-([1,4′-bipiperidin]-4-yl)-2-(3,4-dimethoxyphenyl)-3-isopropyl-1H-indole dihydrochloride]	25 nM	113 nM
COc1ccc(-c2[nH]c3ccc(C4CCN(C5CCN(CC(C)C)CC5)CC4)cc3c2Cl)cc1OC [Example 120, 3-chloro-2-(3,4-dimethoxyphenyl)-5-(1′-isobutyl-[1,4′-bipiperidin]-4-yl)-1H-indole di-trifluoroacetic acid]	1260 nM	2740 nM
CCc1c(-c2ccc(OC)c(OC)c2)[nH]c2ccc(C3CCN(C(=O)C(C)(C)OC(C)=O)CC3)cc12 [Example 175, 1-(4-(2-(3,4-dimethoxyphenyl)-3-ethyl-1H-indol-5-yl)piperidin-1-yl)-2-methyl-1-oxopropan-2-yl acetate]	2060 nM	1690 nM
CCc1c(-c2ccc(OC)c(OC)c2)[nH]c2ccc(C3CCN(C4CCN(CC(C)C)CC4)CC3)cc12 [Example 123, 2-(3,4-dimethoxyphenyl)-3-ethyl-5-(1′-isobutyl-[1,4′-bipiperidin]-4-yl)-1H-indole-di-trifluoroacetic acid]	150 nM	398 nM
CNCCN1CCC(c2cc3c(C(C)C)c(-c4ccc(OC)c(OC)c4)[nH]c3cc2F)CC1 [Example 208, 2-(4-(2-(3,4-dimethoxyphenyl)-6-fluoro-3-isopropyl-1H-indol-5-yl)piperidin-1-yl)-N-methylethan-1-amine]	35 nM	9 nM
COc1ccc(-c2[nH]c3ccc(C4CCN(C(=O)CNCCO)CC4)cc3c2C(C)C)cc1OC [Example 212, 1-(4-(2-(3,4-dimethoxyphenyl)-3-isopropyl-1H-indol-5-yl)piperidin-1-yl)-2-((2-hydroxyethyl)amino)ethan-1-one]	20 nM	13 nM
